What all share (type): cell-based
Assay [1] deals with Malassezia furfur. The assay is described as follows: Disc diffusion inhibition assay (Example 1). The note with it: M. furfur lawn; 6 mm discs soaked with 15 ul supernatant or ketoconazole 1 mg/ml in DMSO; 5 days incubation. As for the experimental part: (§1) FIG. 1|Inhibition assays of the fungicide ketoconazole as positive control for inhibition and Kazachstania unispora supernatant on M. sympodialis, M. furfur, M. restricta and M. globosa. Inhibition assays were performed using the disc diffusion method. Discs were soaked with ketoconazole (1 mg/ml) or K. unispora supernatant and placed on agar plates containing a soft layer inoculated with a single culture of the different Malassezia species to be tested.
(§2) In order to identify strains inhibiting Malassezia growth, inhibition assays were performed using the disc diffusion method. This method consists in disposing discs imbibed with potential inhibitory substances on Petri plates containing a strain of interest. After optimal growth of the strain of interest, growth inhibition can be observed around discs soaked with substances having an inhibitory effect. Potential inhibitory substances tested in this experiment are supernatants obtained after individually culturing a collection of fungal and bacterial strains. After an incubation of 10 days in their optimal broth, each culture was centrifuged and the supernatant was filtered and further stored at −20° C. Ketoconazole, a fungicide, was used as a positive control for Malassezia growth inhibition. It was diluted in dimethyl sulfoxide at 1 mg/ml. The collection of supernantants was tested on the following species from the genus Malassezia: Malassezia restricta, Malassezia globosa, Malassezia furfur and Malassezia sympodialis. All strains were streaked from −80° C. stock on Modified Leeming and Notman (MLN) agar plates and incubated 10 days at 30° C. A 5 ml liquid culture of each species was made in MLN broth and incubated at 30° C. for 2 days for M. furfur and M. sympodialis and 5 days for M. restricta and M. globosa. To allow a lawn growth of the different Malassezia strains tested, Petri plates were prepared as follows: a bottom layer of 50 ml Modified Sabouraud Dextrose (MSD) agar was poured in Petri plates. The soft agar, constituting the top layer, was a mix of 12.5 ml MSD agar, 10.5 ml MLN broth and 2 ml of liquid culture. Plates were allowed to dry for one hour, then, 6 mm-diameter Whatman™ discs were soaked with 15 ul of each thawed supernatants and ketoconazole and placed on the soft agar plate containing the solidified Malassezia monoculture layer. After an incubation of 5 days, inhibition area could be easily observed around discs. […] The strain from which the inhibitory supernatant has been produced was further sequenced using the Sanger technology. The internal transcribed spacer (ITS) of this strain was taxonomically assigned to the yeast Kazachstania unispora (BLASTn, 99% identity, 99% query cover, e-value 0.00).
(In general: Agar diffusion results depend on both activity and mobility in agar.)

In assay [2] the test system is Malassezia globosa. The assay is described as follows: Disc diffusion inhibition assay (Example 1). The note with it: M. globosa lawn; 6 mm discs soaked with 15 ul supernatant or ketoconazole 1 mg/ml in DMSO; 5 days incubation. As for the experimental part: as §1, §2
The test system of assay [3] is Malassezia restricta. As to the kind of experiment: Disc diffusion inhibition assay (Example 1). The note with it: M. restricta lawn; 6 mm discs soaked with 15 ul supernatant or ketoconazole 1 mg/ml in DMSO; 5 days incubation. The method, then: as §1, §2
Assay [4] relates to Malassezia sympodialis. As to the kind of experiment: Disc diffusion inhibition assay (Example 1). The note with it: M. sympodialis lawn; 6 mm discs soaked with 15 ul supernatant or ketoconazole 1 mg/ml in DMSO; 5 days incubation. The method, then: as §1, §2
In assay [5] the test system is Malassezia globosa. The assay is described as follows: Modified disc diffusion assay with living culture (Example 2). The note with it: M. globosa lawn; discs soaked with 15 ul exponentially growing Acetobacter culture or ketoconazole 1 mg/mL in DMSO; 5 days incubation. The method, then: (§3) FIG. 1|Inhibition assays of M. restricta and M. globose by growth of Acetobacter fabarum. Discs were soaked with ketoconazole (1 mg/ml in DMSO) or exponentially growing Acetobacter fabarum culture and placed on agar plates containing a soft layer inoculated with a single culture of the different Malassezia species to be tested. In the upper panel, inhibition of Malassezia globosa is shown; in the bottom panel, Malassezia restricta is shown.
(§4) In order to identify strains whose growth inhibits Malassezia, inhibition assays were performed using a modified disc diffusion method. This method is similar to the classical disk diffusion method that consists in depositing discs imbibed with potential inhibitory substances on Petri plates containing a strain of interest, except that the disks were imbibed with a living culture of an Acetobacter strain. After optimal growth of the strain of interest, growth inhibition can be observed around discs on which the growth of inhibitory bacteria has occurred. Ketoconazole (at 1 mg/mL in DMSO) was used as a positive control for Malassezia growth inhibition. The effect of growth of Acetobacter was tested on Malassezia restricta and Malassezia globosa. All Malassezia strains were streaked from −80° C. stock on Modified Leeming and Notman (MLN) agar plates and incubated 10 days at 30° C. […]

Assay [6] deals with Malassezia restricta. The description is as above. The note with it: M. restricta lawn; discs soaked with 15 ul exponentially growing Acetobacter culture or ketoconazole 1 mg/mL in DMSO; 5 days incubation. As for the experimental part:
as §3, §4

“Also recorded” adds a separate entry of the source.

Regarding `CC(=O)N1CCN(c2ccc(OCC3COC(Cn4ccnc4)(c4ccc(Cl)cc4Cl)O3)cc2)CC1` (stereo not drawn) [ketoconazole], the “growth inhibition (inhibition halo around disc)” value is “inhibits growth of all 4 Malassezia species tested; also recorded: inhibited all 4 Malassezia species tested” in assay [1]; “inhibits growth of all 4 Malassezia species tested; also recorded: inhibited all 4 Malassezia species tested” in assay [2]; “inhibits growth of all 4 Malassezia species tested; also recorded: inhibited all 4 Malassezia species tested” in assay [3]; “inhibits growth of all 4 Malassezia species tested; also recorded: inhibited all 4 Malassezia species tested” in assay [4]; “inhibits growth of both Malassezia species tested; also recorded: inhibited both Malassezia restricta and Malassezia globose” in assay [5]; “inhibits growth of both Malassezia species tested; also recorded: inhibited both Malassezia restricta and Malassezia globose” in assay [6].
